In the assay the test system is HBV rcDNA. The experiment in a line: HepDE19 assay with bDNA quantitation of HBV rcDNA. It counts as cell-based, hepatitis B virus (HBV). Summed up: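 HepDE19 cells were switched to tetracycline-free medium and exposed to compound (0.5% DMSO final) for 7 days at 37° C. rcDNA was then quantified by bDNA with an HBV-specific probe set. In parallel, viability was read as ATP content (CellTiter-Glo) after 4 days on replicate plates.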

Where [1] appears, read: read-out: DE-19bDNA EC50; HepDE19 cells, 7 day incubation, rcDNA measured by Quantigene 2.0 bDNA assay, top concentration 25 μM.
Where [2] appears, read: HepDE19 cells, 7 day incubation, rcDNA measured by Quantigene 2.0 bDNA assay, top concentration 25 μM; read-out: DE-19bDNA EC50.

Read-outs that look alike come from different tables or passages of the source.

As to `CC(c1c[nH]c(=O)c2cc(F)c(F)cc12)N(C)C(=O)c1ccc(Cl)cc1` (single isomer, unassigned) [Compound 131, 4-Chloro-N-(1-(6,7-difluoro-1-oxo-1,2-dihydroisoquinolin-4-yl)ethyl)-N-methylbenzamide], under setting [1], the EC50 (usually the concentration at which the effect is half-maximal) amounted to 14.7 µM.
The same measure, in the same setting: then `CC(c1c[nH]c(=O)c2cc(F)c(F)cc12)N(C)C(=O)c1ccc(Cl)cc1` (single isomer, unassigned) [Compound 132, 4-Chloro-N-(1-(6,7-difluoro-1-oxo-1,2-dihydroisoquinolin-4-yl)ethyl)-N-methylbenzamide], with 0.06 µM.
With `CC(c1c[nH]c(=O)c2cc(F)c(F)cc12)N(C)C(=O)c1ccc(F)c(C(F)F)c1` (single isomer, unassigned) [Compound 133, N-(1-(6,7-Difluoro-1-oxo-1,2-dihydroisoquinolin-4-yl)ethyl)-3-(difluoromethyl)-4-fluoro-N-methylbenzamide], the EC50 under setting [2] worked out at 14.7 µM.
Regarding `CC(c1c[nH]c(=O)c2cc(F)c(F)cc12)N(C)C(=O)c1ccc(F)c(C(F)F)c1` (single isomer, unassigned) [Compound 134, N-(1-(6,7-Difluoro-1-oxo-1,2-dihydroisoquinolin-4-yl)ethyl)-3-(difluoromethyl)-4-fluoro-N-methylbenzamide], under setting [2], the EC50 was 0.06 µM.
Still for that read-out and setting: then `CC(c1c[nH]c(=O)c2cc(F)c(F)cc12)N(C)C(=O)c1ccc(F)c(Cl)c1` (single isomer, unassigned) [Compound 135, 3-Chloro-N-(1-(6,7-difluoro-1-oxo-1,2-dihydroisoquinolin-4-yl)ethyl)-4-fluoro-N-methylbenzamide], with 9.61 µM; and `CC(c1c[nH]c(=O)c2cc(F)c(F)cc12)N(C)C(=O)c1ccc(F)c(Cl)c1` (single isomer, unassigned) [Compound 136, 3-Chloro-N-(1-(6,7-difluoro-1-oxo-1,2-dihydroisoquinolin-4-yl)ethyl)-4-fluoro-N-methylbenzamide], with 0.17 µM.
In the case of `CC(c1c[nH]c(=O)c2cc(F)c(F)cc12)N(C)C(=O)c1ccc(F)c(F)c1` (single isomer, unassigned) [Compound 137, N-(1-(6,7-Difluoro-1-oxo-1,2-dihydroisoquinolin-4-yl)ethyl)-3,4-difluoro-N-methylbenzamide], the EC50 under setting [2] is 22.4 µM.
On the same count and under the same terms, as for `CC(c1c[nH]c(=O)c2cc(F)c(F)cc12)N(C)C(=O)c1ccc(F)c(F)c1` (single isomer, unassigned) [Compound 138, N-(1-(6,7-Difluoro-1-oxo-1,2-dihydroisoquinolin-4-yl)ethyl)-3,4-difluoro-N-methylbenzamide], the figure is 0.45 µM; as for `CC(c1c[nH]c(=O)c2cc(F)c(F)cc12)N(C)C(=O)c1ccc2c(ccn2C)c1` (single isomer, unassigned) [Compound 139, N-(1-(6,7-difluoro-1-oxo-1,2-dihydroisoquinolin-4-yl)ethyl)-N,1-dimethyl-1H-indole-5-carboxamide], greater than 25 µM; as for `CC(c1c[nH]c(=O)c2cc(F)c(F)cc12)N(C)C(=O)c1ccc2c(ccn2C)c1` (single isomer, unassigned) [Compound 140, N-(1-(6,7-difluoro-1-oxo-1,2-dihydroisoquinolin-4-yl)ethyl)-N,1-dimethyl-1H-indole-5-carboxamide], 0.12 µM.
Same read-out and setting: as for `CC(c1c[nH]c(=O)c2cc(F)c(F)cc12)N(C)C(=O)c1ccc2ccn(C)c2c1` (single isomer, unassigned) [Compound 141, N-(1-(6,7-Difluoro-1-oxo-1,2-dihydroisoquinolin-4-yl)ethyl)-N,1-dimethyl-1H-indole-6-carboxamide], the figure is greater than 25 µM.
Regarding `CC(c1c[nH]c(=O)c2cc(F)c(F)cc12)N(C)C(=O)c1ccc2ccn(C)c2c1` (single isomer, unassigned) [Compound 142, N-(1-(6,7-Difluoro-1-oxo-1,2-dihydroisoquinolin-4-yl)ethyl)-N,1-dimethyl-1H-indole-6-carboxamide], the EC50 under setting [2] is 0.39 µM.
On the same count and under the same terms, as for `CC(c1cn(C)c(=O)c2cc(F)c(F)cc12)N(C)C(=O)c1ccc(Br)c(F)c1` (single isomer, unassigned) [Compound 161, 4-bromo-N-(1-(6,7-difluoro-2-methyl-1-oxo-1,2-dihydroisoquinolin-4-yl)ethyl)-3-fluoro-N-methylbenzamide], the figure is 3.09 µM.
In the case of `CC(c1cn(C)c(=O)c2cc(F)c(F)cc12)N(C)C(=O)c1ccc(Br)c(F)c1` (single isomer, unassigned) [Compound 162, 4-bromo-N-(1-(6,7-difluoro-2-methyl-1-oxo-1,2-dihydroisoquinolin-4-yl)ethyl)-3-fluoro-N-methylbenzamide], the EC50 under setting [2] was 0.03 µM.
Turning to `COc1ncc(C(C)N(C)C(=O)c2ccc(Br)cc2)c2cc(F)c(F)cc12` (single isomer, unassigned) [Compound 163, 4-Bromo-N-(1-(6,7-difluoro-1-methoxyisoquinolin-4-yl)ethyl)-N-methylbenzamide], the EC50 under setting [1] was 0.44 µM.
As to `COc1ncc(C(C)N(C)C(=O)c2ccc(Br)cc2)c2cc(F)c(F)cc12` (single isomer, unassigned) [Compound 164, 4-Bromo-N-(1-(6,7-difluoro-1-methoxyisoquinolin-4-yl)ethyl)-N-methylbenzamide], under setting [1], the EC50 came to 17.2 µM.
Turning to `CC(c1cn(C)c(=O)c2cc(F)c(F)cc12)N(C)C(=O)c1ccc(C(F)(F)F)c(F)c1` (single isomer, unassigned) [Compound 165, N-(1-(6,7-difluoro-2-methyl-1-oxo-1,2-dihydroisoquinolin-4-yl)ethyl)-3-fluoro-N-methyl-4-(trifluoromethyl)benzamide], under “Hepatitis B virus, HepDE19, 168 h, HepDE19 cells, 7 day incubation, rcDNA measured by Quantigene 2.0 bDNA assay, top concentration 25 μM; read-out: DE-19bDNA EC50”, the EC50 is 2.34 µM.
Turning to `CC(c1cn(C)c(=O)c2cc(F)c(F)cc12)N(C)C(=O)c1ccc(C(F)(F)F)c(F)c1` (single isomer, unassigned) [Compound 166, N-(1-(6,7-difluoro-2-methyl-1-oxo-1,2-dihydroisoquinolin-4-yl)ethyl)-3-fluoro-N-methyl-4-(trifluoromethyl)benzamide], under setting [2], the EC50 was found to be 3.32 µM.
Consider `CC(c1cn(C)c(=O)c2cc(F)c(F)cc12)N(C)C(=O)c1ccc(Br)cc1` (single isomer, unassigned) [Compound 167, 4-bromo-N-(1-(6,7-difluoro-2-methyl-1-oxo-1,2-dihydroisoquinolin-4-yl)ethyl)-N-methylbenzamide], for which, under setting [2], the EC50 was 2.32 µM.
Same read-out and setting: as for `CC(c1cn(C)c(=O)c2cc(F)c(F)cc12)N(C)C(=O)c1ccc(Br)cc1` (single isomer, unassigned) [Compound 168, 4-bromo-N-(1-(6,7-difluoro-2-methyl-1-oxo-1,2-dihydroisoquinolin-4-y1)ethyl)-N-methylbenzamide], the figure is 0.03 µM; as for `COc1ncc(C(C)N(C)C(=O)c2cc3cc(F)c(F)cc3[nH]2)c2cc(F)c(F)cc12` (single isomer, unassigned) [Compound 169, N-(1-(6,7-Difluoro-1-methoxyisoquinolin-4-yl)ethyl)-5,6-difluoro-N-methyl-1H-indole-2-carboxamide], 0.13 µM.
Still for that read-out and setting: as for `COc1ncc(C(C)N(C)C(=O)c2cc3cc(F)c(F)cc3[nH]2)c2cc(F)c(F)cc12` (single isomer, unassigned) [Compound 170, N-(1-(6,7-Difluoro-1-methoxyisoquinolin-4-yl)ethyl)-5,6-difluoro-N-methyl-1H-indole-2-carboxamide], the figure is 5.04 µM.

Values taken from patent US20230295115A1, “SUBSTITUTED ISOQUINOLINYLMETHYL AMIDES, ANALOGUES THEREOF, AND METHODS USING SAME” (priority 2020, published 2023).
